Test results reported in US10781224B2, “Bis(oxymethyl)phosphinic acid and biogenic metal salts thereof as regulators of plant growth and development” (priority 2016, dated 2020).
Where “and” joins values, the source holds several entries; their conditions need not be identical. Equal values may be shown once.

System: winter wheat (Vershin variety)
Experiment: Winter wheat seed treatment with BHMPA salts: germinating power (length and mass of roots and sprouts)
Type: in vivo
Procedure, shortened: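 Seeds (50 per Petri dish on two layers of filter paper) soaked 1 h in BHMPA or its Ca, Mg, Na, Co, Mn, Cu or Zn salts at 1·10^−6-1·10^−12%, with water controls. Germination energy read on day 4, germination on day 8 (wheat) or day 7 (rice, corn), as % means of four replicates. Germinating power taken as root and sprout length plus wet and dry mass per 100 seedlings.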

[1] = comparative study, 1·10^−9% solution

## O=P([O-])(CO)CO.O=P([O-])(CO)CO.[Zn+2] [Zn-salt, Zinc BHMPA Salt]
1·10^−6% solution
  Length, root: 9.1 cm
  Length, root, + % to control: −6%
  Length, sprout: 6.9 cm
  Length, sprout, + % to control: −4%
  Mass, dry, root: 0.60 g/100 plantlings
  Mass, dry, root, + % to control: 5%
  Mass, dry, sprout: 0.61 g/100 plantlings
  Mass, dry, sprout, + % to control: −4%
  Mass, wet, root: 2.58 g/100 plantlings
  Mass, wet, root, + % to control: 0%
  Mass, wet, sprout: 4.73 g/100 plantlings
  Mass, wet, sprout, + % to control: −1%
1·10^−7% solution
  Length, root: 10.2 cm
  Length, root, + % to control: 5%
  Length, sprout: 7.3 cm
  Length, sprout, + % to control: 1%
  Mass, dry, root: 0.62 g/100 plantlings
  Mass, dry, root, + % to control: 9%
  Mass, dry, sprout: 0.70 g/100 plantlings
  Mass, dry, sprout, + % to control: 9%
  Mass, wet, root: 2.61 g/100 plantlings
  Mass, wet, root, + % to control: 1%
  Mass, wet, sprout: 4.88 g/100 plantlings
  Mass, wet, sprout, + % to control: 2.5%
1·10^−8% solution
  Length, root: 10.3 cm
  Length, root, + % to control: 6%
  Length, sprout: 7.5 cm
  Length, sprout, + % to control: 4%
  Mass, dry, root: 0.64 g/100 plantlings
  Mass, dry, root, + % to control: 12%
  Mass, dry, sprout: 0.77 g/100 plantlings
  Mass, dry, sprout, + % to control: 20%
  Mass, wet, root: 2.77 g/100 plantlings
  Mass, wet, root, + % to control: 7%
  Mass, wet, sprout: 4.98 g/100 plantlings
  Mass, wet, sprout, + % to control: 5%
1·10^−9% solution
  Length, root: 10.9 cm
  Length, root, + % to control: 12%
  Length, sprout: 7.6 cm
  Length, sprout, + % to control: 5.5%
  Mass, dry, root: 0.69 g/100 plantlings
  Mass, dry, root, + % to control: 21%
  Mass, dry, sprout: 0.82 g/100 plantlings
  Mass, dry, sprout, + % to control: 28%
  Mass, wet, root: 3.58 g/100 plantlings
  Mass, wet, root, + % to control: 38%
  Mass, wet, sprout: 5.13 g/100 plantlings
  Mass, wet, sprout, + % to control: 8%
1·10^−10% solution
  Length, root: 10.8 cm
  Length, root, + % to control: 11%
  Length, sprout: 7.6 cm
  Length, sprout, + % to control: 5.5%
  Mass, dry, root: 0.65 g/100 plantlings
  Mass, dry, root, + % to control: 14%
  Mass, dry, sprout: 0.80 g/100 plantlings
  Mass, dry, sprout, + % to control: 25%
  Mass, wet, root: 3.24 g/100 plantlings
  Mass, wet, root, + % to control: 25%
  Mass, wet, sprout: 4.96 g/100 plantlings
  Mass, wet, sprout, + % to control: 4%
1·10^−11% solution
  Length, root: 10.3 cm
  Length, root, + % to control: 6%
  Length, sprout: 7.3 cm
  Length, sprout, + % to control: 1%
  Mass, dry, root: 0.63 g/100 plantlings
  Mass, dry, root, + % to control: 10.5%
  Mass, dry, sprout: 0.74 g/100 plantlings
  Mass, dry, sprout, + % to control: 16%
  Mass, wet, root: 2.8 g/100 plantlings
  Mass, wet, root, + % to control: 8%
  Mass, wet, sprout: 4.92 g/100 plantlings
  Mass, wet, sprout, + % to control: 3%
1·10^−12% solution
  Length, root: 10.1 cm
  Length, root, + % to control: 4%
  Length, sprout: 7.2 cm
  Length, sprout, + % to control: 0%
  Mass, dry, root: 0.62 g/100 plantlings
  Mass, dry, root, + % to control: 9%
  Mass, dry, sprout: 0.63 g/100 plantlings
  Mass, dry, sprout, + % to control: −1%
  Mass, wet, root: 2.65 g/100 plantlings
  Mass, wet, root, + % to control: 2%
  Mass, wet, sprout: 4.90 g/100 plantlings
  Mass, wet, sprout, + % to control: 3%
[1]
  Length, root: 9.5 cm
  Length, root, + % to control: 9%
  Length, sprout: 6.3 cm
  Length, sprout, + % to control: 2%
  Mass, dry, root: 0.68 g/100 plantlings
  Mass, dry, root, + % to control: 10%
  Mass, dry, sprout: 0.55 g/100 plantlings
  Mass, dry, sprout, + % to control: 8%
  Mass, wet, root: 5.18 g/100 plantlings
  Mass, wet, root, + % to control: 43%
  Mass, wet, sprout: 4.91 g/100 plantlings
  Mass, wet, sprout, + % to control: 24%

## Copper BHMPA Salt [Cu-salt]
1·10^−6% and 1·10^−12% solutions
  effectiveness on germinating power: weren't effective
1·10^−6% solution
  Length, root: 4.6 cm
  Length, root, + % to control: −4%
  Length, sprout: 3.8 cm
  Length, sprout, + % to control: −5%
  Mass, dry, root: 0.41 g/100 plantlings
  Mass, dry, root, + % to control: −2%
  Mass, dry, sprout: 0.35 g/100 plantlings
  Mass, dry, sprout, + % to control: −5%
  Mass, wet, root: 2.61 g/100 plantlings
  Mass, wet, root, + % to control: −7%
  Mass, wet, sprout: 2.70 g/100 plantlings
  Mass, wet, sprout, + % to control: 1.5%
1·10^−7% solution
  Length, root: 4.9 cm
  Length, root, + % to control: 2%
  Length, sprout: 4.0 cm
  Length, sprout, + % to control: 0%
  Mass, dry, root: 0.44 g/100 plantlings
  Mass, dry, root, + % to control: 2%
  Mass, dry, sprout: 0.40 g/100 plantlings
  Mass, dry, sprout, + % to control: 8%
  Mass, wet, root: 3.35 g/100 plantlings
  Mass, wet, root, + % to control: 19%
  Mass, wet, sprout: 3.05 g/100 plantlings
  Mass, wet, sprout, + % to control: 15%
1·10^−8% solution
  Length, root: 5.1 cm
  Length, root, + % to control: 6%
  Length, sprout: 4.1 cm
  Length, sprout, + % to control: 2.5%
  Mass, dry, root: 0.47 g/100 plantlings
  Mass, dry, root, + % to control: 9%
  Mass, dry, sprout: 0.46 g/100 plantlings
  Mass, dry, sprout, + % to control: 24%
  Mass, wet, root: 3.68 g/100 plantlings
  Mass, wet, root, + % to control: 31%
  Mass, wet, sprout: 3.22 g/100 plantlings
  Mass, wet, sprout, + % to control: 21%
1·10^−9% solution
  Length, root: 5.6 cm
  Length, root, + % to control: 17%
  Length, sprout: 4.7 cm
  Length, sprout, + % to control: 17% and 17.5%
  Mass, dry, root: 0.60 g/100 plantlings
  Mass, dry, root, + % to control: 39.5%
  Mass, dry, sprout: 0.50 g/100 plantlings
  Mass, dry, sprout, + % to control: 35%
  Mass, wet, root: 4.13 g/100 plantlings
  Mass, wet, root, + % to control: 47%
  Mass, wet, sprout: 3.61 g/100 plantlings
  Mass, wet, sprout, + % to control: 36%
1·10^−10% solution
  Length, root: 5.3 cm
  Length, root, + % to control: 10%
  Length, sprout: 4.4 cm
  Length, sprout, + % to control: 10%
  Mass, dry, root: 0.49 g/100 plantlings
  Mass, dry, root, + % to control: 14%
  Mass, dry, sprout: 0.48 g/100 plantlings
  Mass, dry, sprout, + % to control: 30%
  Mass, wet, root: 3.75 g/100 plantlings
  Mass, wet, root, + % to control: 33.5%
  Mass, wet, sprout: 3.34 g/100 plantlings
  Mass, wet, sprout, + % to control: 25.5%
1·10^−11% solution
  Length, root: 5.1 cm
  Length, root, + % to control: 6%
  Length, sprout: 4.1 cm
  Length, sprout, + % to control: 2.5%
  Mass, dry, root: 0.46 g/100 plantlings
  Mass, dry, root, + % to control: 7%
  Mass, dry, sprout: 0.46 g/100 plantlings
  Mass, dry, sprout, + % to control: 24%
  Mass, wet, root: 3.44 g/100 plantlings
  Mass, wet, root, + % to control: 11%
  Mass, wet, sprout: 3.20 g/100 plantlings
  Mass, wet, sprout, + % to control: 20%
1·10^−12% solution
  Length, root: 4.8 cm
  Length, root, + % to control: 0%
  Length, sprout: 4.0 cm
  Length, sprout, + % to control: 0%
  Mass, dry, root: 0.41 g/100 plantlings
  Mass, dry, root, + % to control: −2%
  Mass, dry, sprout: 0.42 g/100 plantlings
  Mass, dry, sprout, + % to control: 13.5%
  Mass, wet, root: 3.01 g/100 plantlings
  Mass, wet, root, + % to control: 7%
  Mass, wet, sprout: 2.92 g/100 plantlings
  Mass, wet, sprout, + % to control: 10%
[1]
  Length, root: 10.9 cm
  Length, root, + % to control: 25%
  Length, sprout: 7.2 cm
  Length, sprout, + % to control: 16%
  Mass, dry, root: 0.67 g/100 plantlings
  Mass, dry, root, + % to control: 8%
  Mass, dry, sprout: 0.59 g/100 plantlings
  Mass, dry, sprout, + % to control: 16%
  Mass, wet, root: 5.45 g/100 plantlings
  Mass, wet, root, + % to control: 51%
  Mass, wet, sprout: 5.00 g/100 plantlings
  Mass, wet, sprout, + % to control: 26%
